Results taken from paper PMC7259601 (PLoS ONE, 2020).
“And” between values parts separate entries of the source, which are not always exact repeats. Equal values may be shown once.

What was measured:
[1] = tested on: isolated Sprague-Dawley rats; experiment: Resident Intruder test, rat isolation rearing model; assay type: in vivo; conditions: 0.16 or 0.48 mg/kg/day
Procedure: Sprague Dawley Rats: Right after the weaning (post natal day 21-23), 72 Sprague-Dawley male rats (Charles River, bred in the UAB Animal facility) were divided in two groups: Control (N = 18), maintained 3-4 animals per cage; Isolated (N = 54), 1 animal per cage ([…] 1291H Eurostandard type III with ECOPURE CHIPS 6 bedding material, Harlan). Animals were maintained at 21 ± 2 °C controlled temperature in a 12 hr light / dark cycle (lights on at 8:00 am) with ad libitum access to food (2014 TEKLAD, Harlan) and water. […] Control animals were treated with vehicle. The administration route was drinking water and the vehicle 1.8% 2-Hydroxypropyl-b-cyclodextrin. Drug concentration was adjusted weekly by body weight and water consumption. During the last week of treatment, all animals were tested in the EPM and, on a different day, in the RI test (N = 12 / group). After depth anesthesia with Isoflurane, animals were perfused with saline solution followed by paraformaldehyde in order to obtain brain samples for histological analysis.
The protocol was modified from previously described. Briefly, the test subject (resident) was maintained in its home cage without bedding changes for one week. […] In mice the session was video-recorded for 20 min and social interaction (social interaction and rearings) and aggressive behavior (lateral threats, clinch attacks, keep-down behavior) were analyzed. […] In rats the session was video recorded for 15 min and social interaction (active and passive social interaction, number of evitations and time without social interaction) were analyzed. […] In addition, the time spent without social interaction was also measured.
Resident Intruder (RI): Mice were video-recorded for 20 min and social interaction and aggressive behavior were analyzed. Rats were video recorded for 15 min and social interaction (active and passive social interaction, number of evitations and time without social interaction) were analyzed.

[2] = biological target: KDM1A (Homo sapiens, UniProt O60341); experiment: Chemoprobe based KDM1A target engagement in THP-1 cells; assay type: cell-based; parameters: Native protein extracts of cells or tissues were obtained in presence of 25 nM OG-881 chemoprobe; endogenous in cells; host or cells: THP-1; conditions: THP-1 cells treated 24 hr
Procedure: Native protein extracts of cells or tissues were obtained in presence of 25 nM OG-881 chemoprobe according the protocol described in Mascaró et al..
Luminescent ELISA: for quantification of total amount of KDM1A protein (TOTAL KDM1A), Luminunc Plates Maxisorp (NUNC; #436110) were coated with a monoclonal anti-KDM1A antibody (Abcam; #ab53269) at 2 µg/mL in PBS. For quantification of the fraction not bound to inhibitor (FREE KDM1A), plates were coated with streptavidin (Promega Biotech Ibérica; #Z7041) at 10 µg/mL in PBS. Coating was performed at 4°C O/N. Wells were washed 3 times in PBS, 0.1% Tween-20 and blocked with PBS-BSA 1% (Sigma; #A3059) for 2 hr. A KDM1A calibration curve of full length rKDM1A (Active Motif; #31334) diluted in PBS was included in each plate. Plates were then incubated 1 hr at RT and washed 5 times. […] Plates were centrifuged during 30 sec to 1,500 x g, shaken for 1 min at 100rpm and incubated inside the micropate reader (Infinite 200, Tecan) for 3 min at 25 °C. The relative luminescence units (RLU) readouts were acquired using a 1000 msec integration time and 150 msec settle time.
All assays were run as triplicate technical replicates (n = 3). After raw data processing (robust elimination of outliers according to Grubbs criteria and subtraction of blank signal on technical replicates), the target engagement was calculated as […]

[3] = tested on: rats; experiment: Functional Observation Battery; assay type: in vivo; conditions: single dose of up to 100 mg/kg
[4] = biological target: T1, rKDM1A (Homo sapiens, UniProt O60341); experiment: Kinetics of inhibition of KDM1A; assay type: biochemical; conditions: pure recombinant enzyme, H3K4me2 peptide
T1 construct: purchased BPS Bioscience 50100
Procedure: Time course experiments were performed to assess the rate of inhibition of demethylation of a H3K4me2 peptide mediated by rKDM1A, monitoring the release of H2O2 produced during the reaction using a coupled horseradish peroxidase assay using Amplex Red reagent as a substrate. Conditions were the same as for IC50 determinations, but all reagents were added simultaneously.

[5] = tested on: THP-1 cells; experiment: FACS based CD11B induction assay in THP-1; assay type: cell-based; conditions: Homo sapiens; THP-1, 96 hr; read-out: EC50 induction of differentiation marker CD11B
Procedure: Human leukemic THP1 (ACC-16) cells ([…]) were obtained from DMSZ and maintained in RPMI 1640 medium (Cat# R0883; Sigma Aldrich) supplemented with 10 % heat inactivated fetal bovine serum (FBS; Cat# F9665; Sigma-Aldrich) and 2 mM Glutamine (Cat# X0550 Biowest).
THP-1 cells are acute leukemia cells with blast phenotype that can be induced to differentiate into a monocyte/macrophage phenotype by cell penetrant KDM1A inhibitors. Differentiation can be followed by measurement of induction of differentiation surface markers like CD11B. Cells were treated for 96 hr with KDM1A inhibitors. Fluorescent assisted cell sorting (FACS) analysis of CD11B expression was performed on 1.5 x 10^5 THP-1 cells (obtained from German Collection of microorganism and Cell Cultures; ACC-16) using a phycoerythrin-conjugated human CD11B-specific mouse monoclonal antibody (eBiosciences, #12-0118) at dilution 1:5 on a cytomics FC500 (Beckman Coulter) with FlowJo software. The mouse IgG1 K isotype (eBiosciences, #12-4714) was used as a control antibody. Concentration-response curves were determined out by assaying inhibitors at concentrations ranging between 0.32 and 200 nM.

## Nc1nnc(CN[C@@H]2C[C@H]2c2ccc(OCc3ccccc3)cc2)o1 [ORY-2001, vafidemstat]
[1]
  active and passive social interaction: had no effect on these parameters
  number of evitations: restored to normality
  time without social interaction: dose dependently reduced
[2]
  EC50: ~1 nM and 1 nM
[3]
  neurological alterations in the Functional Observation Battery: did not lead to neurological alterations
[4]
  KI (inactivation): 1800 nM
[5]
  EC50: 21 nM
